# Patent EP1149074B1, “ACETYLENIC SULFONAMIDE THIOL TACE INHIBITORS” (Wyeth Holdings Corporation, priority 1999, dated 2000)
# Experiments:
# [1] = system: THP-1 cells; assay: Human monocytic THP-1 cell differentiation assay for soluble proteins (THP-1 soluble protein assay); assay type: cell-based; details: LPS-stimulated THP-1 cells; quantity, unit and concentration not given
# Excerpt: Human Monocytic THP-1 Cell Differentiation Assay For Soluble Proteins (THP-1 Soluble Protein Assay)
# Mitogenic stimulation of THP-1 cells cause differentiation into macrophage like cells with concomitant secretion of tumor necrosis factor (TNF-α) and TNF receptor (TNF-R p75/80 and TNF-R p55/60) and Interleukin-8 (IL-8), among other proteins. In addition, non-stimulated THP-1 cells shed both the p75/80 and the […] receptors over time. The release of membrane bound TNF-α and possibly TNF-R p75/80 and TNF-R p55/60, but not IL-8, is mediated by an enzyme called TNF-α converting enzyme or TACE.
# THP-1 cells (from ATCC) are a human monocytic cell line which were obtained from the peripheral blood of a person with acute monocytic leukemia. They can be grown in culture and differentiated into macrophage like cells by stimulation with mitogens.
# For the assay, THP-1 cells are seeded from an ATCC stock which was previously grown and frozen back at 5 x 10^6/ml/vial. […]
# To perform an assay, the THP-1 cells are co-incubated in a 24 well plate with […] of a 24 mg/ml stock of Lipopolysacharide (LPS) (Calbiochem Lot# B13189) at 37°C in 5% CO2 at a concentration of 1.091 x 10^6 cells/ml (1.1 ml/well) for a total of 24 hours. […] Compounds can be evaluated for their effect on basal (non-stimulated) shedding of the receptors by replacing the LPS with […] of THP-1 media. […]
# In addition, at the 24 hours timepoint, and the cells for each treatment group are collected by resuspension in 500 µl/well of THP-1 media and transferred into a FACS tube. […] The samples are run on a Becton Dickinson FaxCaliber FLOW cytometry machine and the amount of dye taken up by each cell is measured in the high red wavelength (FL3). […] The percent of live cells is calculated by the number of cells not stained with PI, divided by the total number of cells in the sample. The viability values calculated for the drug treated groups were compared to the viability value calculated for the vehicle treated mitogen stimulated group ("vehicle positive control") to determine the "percent change from control". […]
# [2] = target: TACE (Homo sapiens, UniProt P78536); assay: TACE inhibition test procedure (fluorescent peptidyl substrate); assay type: biochemical
# Experimental: Test Procedure for Measuring TACE Inhibition
# Using 96-well black microtiter plates, each well receives a solution composed of 10 µL TACE (final concentration 1µg/mL), 70µL Tris buffer, pH 7.4 containing 10% glycerol (final concentration 10 mM), and 10 µL of test compound solution in DMSO (final concentration 1µM, DMSO concentration <1%) and incubated for 10 minutes at room temperature. The reaction is initiated by addition of a fluorescent peptidyl substrate (final concentration 100 µM) to each well and then shaking on a shaker for 5 sec.
# The reaction is read (excitation 340 nm, emission 420 nm) for 10 min. and the increase in fluorescence over time is plotted as a linear line. The slope of the line is calculated and represents the reaction rate.
# The linearity of the reaction rate is confirmed (r^2 >0.85). The mean (x±sem) of the control rate is calculated and compared for statistical significance (p<0.05) with drug-treated rates using Dunnett's multiple comparison test. Dose-response relationships can be generate using multiple doses of drug and IC50 values with 95% CI are estimated using linear regression.
# TACE, sequence (P78536 215-824): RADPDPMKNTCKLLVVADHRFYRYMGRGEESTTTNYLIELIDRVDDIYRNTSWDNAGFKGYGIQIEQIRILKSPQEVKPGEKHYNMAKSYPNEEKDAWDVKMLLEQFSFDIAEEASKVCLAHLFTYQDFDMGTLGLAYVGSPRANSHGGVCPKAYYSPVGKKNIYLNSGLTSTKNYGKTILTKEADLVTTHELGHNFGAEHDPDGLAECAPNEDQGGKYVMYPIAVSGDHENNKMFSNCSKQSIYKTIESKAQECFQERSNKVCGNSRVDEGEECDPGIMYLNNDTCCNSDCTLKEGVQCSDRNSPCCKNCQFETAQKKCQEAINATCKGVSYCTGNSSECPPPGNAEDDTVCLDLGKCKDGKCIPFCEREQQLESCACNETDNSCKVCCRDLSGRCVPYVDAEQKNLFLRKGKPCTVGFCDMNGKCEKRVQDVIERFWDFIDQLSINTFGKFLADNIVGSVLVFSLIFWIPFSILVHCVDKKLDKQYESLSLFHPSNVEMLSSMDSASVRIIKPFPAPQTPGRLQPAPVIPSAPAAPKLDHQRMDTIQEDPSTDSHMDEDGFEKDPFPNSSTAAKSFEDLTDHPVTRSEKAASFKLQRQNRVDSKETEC
IC50 [2],SMILES,THP [1]
–,"CC#CCOc1ccc(S(=O)(=O)N(C)[C@H](C)CS)cc1 [Example 8, 4-But-2-ynyloxy-N-((1R)-2-mercapto-1-methyl-ethyl)-N-methyl-benzenesulfonamide]",3
362 nM,"CC#CCOc1ccc(S(=O)(=O)N(CCN2CCOCC2)[C@H](C)CS)cc1 [Example 11, 4-(2-Butynyloxy)-N-[(1R)-1-methyl-2-sulfanylethyl]-N-[2-(4-morpholinyl)ethyl]benzenesulfonamide]",11
263 nM,"CC#CCOc1ccc(S(=O)(=O)N(CCN2CCOCC2)[C@@H](CS)C(N)=O)cc1 [Example 15, (2R)-2-{{[4-(2-Butynyloxy)phenyl]sulfonyl}[2-(4-morpholinyl)ethyl]amino}-3-sulfanylpropanamide]",19
